The source of these data is patent US11332468B2, “Azaindole derivatives as Rho-kinase inhibitors” (CHIESI FARMACEUTICI S.p.A., priority 2017, dated 2022).

What is called Ki is a dissociation constant, usually derived from enzyme kinetics or from competition with a known ligand. A lower Ki goes with higher affinity.

The structures appear in SMILES notation.

One test has as its target Rho kinase 1 (ROCK1) (Homo sapiens, UniProt Q13464). Kind of test: In vitro Rho kinase inhibitory activity assay (ADP-Glo), ROCK1. The class given is biochemical. As to conditions: Ki by Cheng-Prusoff from IC50; 10 μM ATP; range of activity. How it is done: (§1) The effectiveness of compounds of the invention to inhibit Rho kinase activity can be determined in a […] assay containing 40 mM Tris pH7.5, 20 mM MgC2 0.1 mg/ml BSA, 50 μM DTT and 2.5 μM peptide substrate (Myelin Basic Protein) using an ADP-Glo kit (Promega). Compounds were dissolved in DMSO such that the final concentration of DMSO was 1% in the assay. All reactions/incubations are performed at 25° C. Compound (2 ul) and either Rho kinase 1 or 2 (4 μl) were mixed and incubated for 30 mins. Reactions were initiated by addition of ATP (4 μl) such that the final concentration of ATP in the assay was 10 μM. After a 1 hour incubation 10 μl of ADP-Glo Reagent was added and after a further 45 minute incubation 20 ul of Kinase Detection Buffer was added and the mixture incubated for a further 30 minutes. The luminescent signal was measured on a luminometer. […] Compounds were tested in dose-response format and the inhibition of kinase activity was calculated at each concentration of compound. To determine the IC50 (concentration of compound required to inhibit 50% of the enzyme activity) data were fit to a plot of % inhibition vs Log10 compound concentration using a sigmoidal fit with a variable slope and fixing the maximum to 100% and the minimum to 0%. To determine the Ki values the Cheng-Prusoff equation was utilized (Ki=IC50/(1+[S]/Km)

The next test deals with Rho kinase 2 (ROCK2) (Homo sapiens, UniProt O75116). Kind of test: In vitro Rho kinase inhibitory activity assay (ADP-Glo), ROCK2. The class given is biochemical. As to conditions: Ki by Cheng-Prusoff from IC50; 10 μM ATP; range of activity. As to the method:
as §1
A general note: ADP-Glo first removes unused ATP, then detects ADP through luciferase.

Chain of Rho kinase 1 (ROCK1) (Q13464 whole entry): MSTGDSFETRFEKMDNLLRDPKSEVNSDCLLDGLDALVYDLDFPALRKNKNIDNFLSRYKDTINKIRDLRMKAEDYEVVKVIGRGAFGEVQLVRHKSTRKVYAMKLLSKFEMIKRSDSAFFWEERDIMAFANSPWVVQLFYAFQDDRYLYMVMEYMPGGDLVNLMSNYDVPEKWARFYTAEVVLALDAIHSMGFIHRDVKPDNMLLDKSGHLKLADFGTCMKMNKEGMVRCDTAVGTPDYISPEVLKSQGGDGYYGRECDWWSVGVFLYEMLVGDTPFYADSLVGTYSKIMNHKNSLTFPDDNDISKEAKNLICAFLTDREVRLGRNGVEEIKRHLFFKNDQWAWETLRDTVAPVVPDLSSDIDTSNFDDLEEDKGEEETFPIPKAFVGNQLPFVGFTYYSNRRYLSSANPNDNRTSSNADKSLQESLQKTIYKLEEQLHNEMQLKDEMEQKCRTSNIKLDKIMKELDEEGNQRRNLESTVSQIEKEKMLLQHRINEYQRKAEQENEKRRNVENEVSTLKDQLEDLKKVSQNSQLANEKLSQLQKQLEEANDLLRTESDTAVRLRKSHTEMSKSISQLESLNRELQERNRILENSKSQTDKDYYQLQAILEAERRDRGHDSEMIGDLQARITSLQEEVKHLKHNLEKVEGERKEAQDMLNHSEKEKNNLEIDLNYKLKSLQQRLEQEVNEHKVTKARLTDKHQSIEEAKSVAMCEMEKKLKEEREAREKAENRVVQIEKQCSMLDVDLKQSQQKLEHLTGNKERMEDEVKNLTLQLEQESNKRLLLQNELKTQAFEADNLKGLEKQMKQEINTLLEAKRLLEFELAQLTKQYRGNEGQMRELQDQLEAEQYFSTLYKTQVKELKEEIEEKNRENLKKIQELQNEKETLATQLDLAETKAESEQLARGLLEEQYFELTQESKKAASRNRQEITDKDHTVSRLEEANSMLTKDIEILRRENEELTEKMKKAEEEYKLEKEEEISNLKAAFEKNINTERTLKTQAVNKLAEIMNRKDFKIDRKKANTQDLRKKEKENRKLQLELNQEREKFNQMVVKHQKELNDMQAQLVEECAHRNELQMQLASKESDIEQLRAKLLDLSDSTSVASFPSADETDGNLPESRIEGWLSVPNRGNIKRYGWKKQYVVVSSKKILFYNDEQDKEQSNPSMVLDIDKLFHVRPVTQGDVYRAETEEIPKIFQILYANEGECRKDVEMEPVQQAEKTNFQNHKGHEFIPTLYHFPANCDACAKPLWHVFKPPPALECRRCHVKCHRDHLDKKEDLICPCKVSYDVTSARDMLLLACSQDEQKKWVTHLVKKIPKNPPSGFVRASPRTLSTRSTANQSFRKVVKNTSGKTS
Chain of Rho kinase 2 (ROCK2) (O75116 whole entry): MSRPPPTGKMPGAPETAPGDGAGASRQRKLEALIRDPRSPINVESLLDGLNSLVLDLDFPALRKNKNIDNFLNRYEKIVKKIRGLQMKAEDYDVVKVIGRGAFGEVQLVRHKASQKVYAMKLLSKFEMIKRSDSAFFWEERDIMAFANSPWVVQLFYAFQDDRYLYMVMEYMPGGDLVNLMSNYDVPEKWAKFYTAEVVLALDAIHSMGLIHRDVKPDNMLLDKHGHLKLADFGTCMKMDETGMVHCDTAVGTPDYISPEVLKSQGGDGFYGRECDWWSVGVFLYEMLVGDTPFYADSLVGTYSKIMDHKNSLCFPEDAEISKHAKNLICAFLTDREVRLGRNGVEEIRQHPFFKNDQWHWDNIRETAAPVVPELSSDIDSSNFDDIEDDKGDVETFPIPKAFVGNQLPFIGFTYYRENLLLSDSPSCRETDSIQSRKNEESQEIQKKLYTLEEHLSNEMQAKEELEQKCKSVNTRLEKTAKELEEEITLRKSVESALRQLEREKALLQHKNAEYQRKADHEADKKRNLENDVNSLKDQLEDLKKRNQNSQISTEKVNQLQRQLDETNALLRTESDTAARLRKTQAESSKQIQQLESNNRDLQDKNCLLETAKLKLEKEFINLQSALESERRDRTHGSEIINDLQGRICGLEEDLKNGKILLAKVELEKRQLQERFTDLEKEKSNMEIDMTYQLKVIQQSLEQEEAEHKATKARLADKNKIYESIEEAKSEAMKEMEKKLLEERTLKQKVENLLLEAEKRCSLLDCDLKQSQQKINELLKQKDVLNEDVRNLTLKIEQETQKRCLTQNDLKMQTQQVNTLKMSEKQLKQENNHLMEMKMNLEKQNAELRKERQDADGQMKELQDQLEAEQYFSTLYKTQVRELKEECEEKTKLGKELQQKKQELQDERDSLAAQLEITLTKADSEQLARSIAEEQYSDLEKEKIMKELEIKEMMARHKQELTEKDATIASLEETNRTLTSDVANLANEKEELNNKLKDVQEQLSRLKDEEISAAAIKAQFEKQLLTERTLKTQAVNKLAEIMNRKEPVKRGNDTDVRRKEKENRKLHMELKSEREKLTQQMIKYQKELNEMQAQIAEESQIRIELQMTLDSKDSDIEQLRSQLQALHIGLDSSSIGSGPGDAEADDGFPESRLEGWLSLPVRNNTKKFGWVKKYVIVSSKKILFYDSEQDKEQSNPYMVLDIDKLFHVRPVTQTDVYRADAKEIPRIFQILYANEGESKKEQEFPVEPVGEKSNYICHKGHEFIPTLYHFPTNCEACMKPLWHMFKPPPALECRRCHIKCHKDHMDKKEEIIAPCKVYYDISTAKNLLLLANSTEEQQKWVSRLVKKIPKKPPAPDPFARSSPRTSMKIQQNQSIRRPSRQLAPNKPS

As for `Cc1c[nH]c2nccc(Oc3ccc(CNCCO)cc3)c12` [Example 31, 2-((4-((3-methyl-1H-pyrrolo[2,3-b]pyridin-4-yl)oxy)benzyl)amino)ethanol], the Ki on Rho kinase 1 (ROCK1) and on Rho kinase 2 (ROCK2) was 5 to 50 nM in each case. With `Cc1c[nH]c2nccc(Oc3ccc(C[C@H](N)CO)cc3)c12` [Example 37, (S)-2-amino-3-(4-((3-methyl-1H-pyrrolo[2,3-b]pyridin-4-yl)oxy)phenyl)propan-1-ol], the inhibition constant (Ki) at Rho kinase 1 (ROCK1) and on Rho kinase 2 (ROCK2) was below 5 nM throughout. Consider `Cc1c[nH]c2nccc(Oc3ccc(C(N)CO)cc3)c12` (stereo not drawn) [Example 38, 2-amino-2-(4-((3-methyl-1H-pyrrolo[2,3-b]pyridin-4-yl)oxy)phenyl)ethanol], for which the values for the Ki at Rho kinase 1 (ROCK1) and at Rho kinase 2 (ROCK2) were 5 to 50 nM and below 5 nM, respectively. Consider `Cc1c[nH]c2nccc(Oc3ccc4c(c3)CCCC4N)c12` (stereo not drawn) [Example 26], for which the inhibitory constant (Ki) at Rho kinase 1 (ROCK1) and on Rho kinase 2 (ROCK2) was 5 to 50 nM in each case. As for `NCc1cc(F)c(Oc2ccnc3[nH]ccc23)c(F)c1` [Example 35, (4-((1H-Pyrrolo[2,3-b]pyridin-4-yl)oxy)-3,5-difluorophenyl)methanamine], the results for the Ki on Rho kinase 1 (ROCK1) and at Rho kinase 2 (ROCK2) were 5 to 50 nM and below 5 nM, respectively. For `Cc1c[nH]c2nccc(Oc3ccc4c(c3)CC(N)C4)c12` (stereo not drawn) [Example 14, 5-((3-methyl-1H-pyrrolo[2,3-b]pyridin-4-yl)oxy)-2,3-dihydro-1H-inden-2-amine], the inhibition constant (Ki) is 5 to 50 nM on Rho kinase 1 (ROCK1) and below 5 nM on Rho kinase 2 (ROCK2). With `NCCc1ccc(Oc2ccnc3[nH]ccc23)cc1` [Example 4, 2-(4-((1H-pyrrolo[2,3-b]pyridin-4-yl)oxy)phenyl)ethanamine], the inhibition constant Ki at Rho kinase 1 (ROCK1) and on Rho kinase 2 (ROCK2) was 5 to 50 nM each time. With `Cc1c[nH]c2nccc(Oc3ccc4c(c3)CCNC4)c12` [Example 11, 6-((3-methyl-1H-pyrrolo[2,3-b]pyridin-4-yl)oxy)-1,2,3,4-tetrahydroisoquinoline], the inhibition constant Ki at Rho kinase 1 (ROCK1) and at Rho kinase 2 (ROCK2) was 5 to 50 nM each time. For `Cc1c[nH]c2nccc(Oc3ccc(C4CNC4)cc3)c12` [Example 17, 4-(4-(azetidin-3-yl)phenoxy)-3-methyl-1H-pyrrolo[2,3-b]pyridine], the results for the inhibitory constant (Ki) at Rho kinase 1 (ROCK1) and at Rho kinase 2 (ROCK2) were 5 to 50 nM and below 5 nM, respectively. On the same counts, the results for `Cc1c[nH]c2nccc(Oc3ccc4c(c3)CCCNC4)c12` [Example 15, 7-((3-methyl-1H-pyrrolo[2,3-b]pyridin-4-yl)oxy)-2,3,4,5-tetrahydro-1H-benzo[c]azepine] are 5 to 50 nM and 5 to 50 nM. `Cc1c[nH]c2ncnc(Oc3ccc(C4CCNC4)cc3)c12` (stereo not drawn) [Example 7, 5-methyl-4-(4-(pyrrolidin-3-yl)phenoxy)-7H-pyrrolo[2,3-d]pyrimidine]: the Ki on Rho kinase 1 (ROCK1) and on Rho kinase 2 (ROCK2) was above 50 nM each time. Regarding `Cc1c[nH]c2nccc(Oc3ccc(C4CCCN4)cc3)c12` (single isomer, unassigned) [Example 18B, 3-methyl-4-(4-(pyrrolidin-2-yl)phenoxy)-1H-pyrrolo[2,3-b]pyridine], the Ki on Rho kinase 2 (ROCK2) was 5 to 50 nM.

As for `Cc1c[nH]c2ncnc(Oc3ccc(CCN)cc3)c12` [Example 8, 2-(4-((5-methyl-7H-pyrrolo[2,3-d]pyrimidin-4-yl)oxy)phenyl)ethanamine], the inhibitory constant (Ki) on Rho kinase 1 (ROCK1) and at Rho kinase 2 (ROCK2) was above 50 nM each time. Take `Cc1c[nH]c2nccc(Oc3ccc4c(c3)CN(C)CC4)c12` [Example 10, 2-methyl-7-((3-methyl-1H-pyrrolo[2,3-b]pyridin-4-yl)oxy)-1,2,3,4-tetrahydroisoquinoline]: the Ki at Rho kinase 1 (ROCK1) and at Rho kinase 2 (ROCK2) was below 5 nM throughout. In the case of `Cc1c[nH]c2nccc(Oc3ccc(CN)cc3F)c12` [Example 12, (3-fluoro-4-((3-methyl-1H-pyrrolo[2,3-b]pyridin-4-yl)oxy)phenyl)methanamine], the inhibition constant Ki on Rho kinase 1 (ROCK1) and on Rho kinase 2 (ROCK2) was below 5 nM in each case. On to `Cc1c[nH]c2nccc(Oc3ccc(C4CCCN4)cc3)c12` (racemic) [Example 18, 3-methyl-4-(4-(pyrrolidin-2-yl)phenoxy)-1H-pyrrolo[2,3-b]pyridine], for which the Ki on Rho kinase 1 (ROCK1) and on Rho kinase 2 (ROCK2) was 5 to 50 nM in each case. With `CNCc1ccc(Oc2ccnc3[nH]cc(C)c23)cc1` [Example 3, N-methyl-1-(4-((3-methyl-1H-pyrrolo[2,3-b]pyridin-4-yl)oxy)phenyl)methanamine], the Ki at Rho kinase 1 (ROCK1) and at Rho kinase 2 (ROCK2) was 5 to 50 nM each time. Take `Cc1c[nH]c2nccc(Oc3ccc(CCN)cc3)c12` [Example 19, 2-(4-((3-methyl-1H-pyrrolo[2,3-b]pyridin-4-yl)oxy)phenyl)ethanamine]: the inhibition constant (Ki) at Rho kinase 1 (ROCK1) and on Rho kinase 2 (ROCK2) was below 5 nM throughout. Regarding `Cc1c[nH]c2nccc(Oc3ccc(C[C@H](N)CO)cc3F)c12` [Example 36, (S)-2-amino-3-(3-fluoro-4-((3-methyl-1H-pyrrolo[2,3-b]pyridin-4-yl)oxy)phenyl)propan-1-ol], the Ki on Rho kinase 1 (ROCK1) and at Rho kinase 2 (ROCK2) was below 5 nM in each case.

With `Cc1c[nH]c2nccc(Oc3ccc(CN)cc3)c12` [Example 21, (4-((3-methyl-1H-pyrrolo[2,3-b]pyridin-4-yl)oxy)phenyl)methanamine], the results for the Ki on Rho kinase 1 (ROCK1) and on Rho kinase 2 (ROCK2) were 5 to 50 nM and below 5 nM, respectively.

Regarding `Cc1c[nH]c2nccc(Oc3ccc(C(C)N)cc3)c12` (stereo not drawn) [Example 24, 1-(4-((3-methyl-1H-pyrrolo[2,3-b]pyridin-4-yl)oxy)phenyl)ethanamine], the Ki was 5 to 50 nM at Rho kinase 1 (ROCK1) and below 5 nM at Rho kinase 2 (ROCK2). Regarding `Cc1c[nH]c2nccc(Oc3ccc(C4CNCCN4)cc3)c12` (stereo not drawn) [Example 13, 3-methyl-4-(4-(piperazin-2-yl)phenoxy)-1H-pyrrolo[2,3-b]pyridine], the Ki on Rho kinase 1 (ROCK1) and at Rho kinase 2 (ROCK2) was 5 to 50 nM in each case.

Consider `N#Cc1c[nH]c2nccc(Oc3ccc4c(c3)CNCC4)c12` [Example 34, 4-((1,2,3,4-Tetrahydroisoquinolin-7-yl)oxy)-1H-pyrrolo[2,3-b]pyridine-3-carbonitrile], for which the inhibition constant (Ki) on Rho kinase 1 (ROCK1) and at Rho kinase 2 (ROCK2) was below 5 nM in each case.

Regarding `Cc1c[nH]c2ncnc(Oc3ccc(CN)cc3)c12` [Example 9, (4-((5-methyl-7H-pyrrolo[2,3-d]pyrimidin-4-yl)oxy)phenyl)methanamine], the Ki on Rho kinase 1 (ROCK1) and at Rho kinase 2 (ROCK2) was above 50 nM in each case. For `Cc1c[nH]c2ncnc(Oc3ccc4c(c3)CNCC4)c12` [Example 6, 7-((5-methyl-7H-pyrrolo[2,3-d]pyrimidin-4-yl)oxy)-1,2,3,4-tetrahydroisoquinoline], the inhibition constant (Ki) at Rho kinase 1 (ROCK1) and on Rho kinase 2 (ROCK2) was 5 to 50 nM in each case. For the compound `Cc1c[nH]c2nccc(Oc3ccc(CN4CCOCC4)cc3)c12` [Example 27, 4-(4-((3-Methyl-1H-pyrrolo[2,3-b]pyridin-4-yl)oxy)benzyl)morpholine], the Ki at Rho kinase 1 (ROCK1) and on Rho kinase 2 (ROCK2) was above 50 nM each time.

As for `Cc1c[nH]c2nccc(Oc3ccc4c(c3)CNCC4)c12` [Example 1, 7-((3-Methyl-1H-pyrrolo[2,3-b]pyridin-4-yl)oxy)-1,2,3,4-tetrahydroisoquinoline], the inhibitory constant (Ki) at Rho kinase 1 (ROCK1) and at Rho kinase 2 (ROCK2) was below 5 nM in each case. As for `Cc1c[nH]c2nccc(Oc3ccc(CN(C)C)cc3)c12` [Example 29, N,N-dimethyl-1-(4-((3-methyl-1H-pyrrolo[2,3-b]pyridin-4-yl)oxy)phenyl)methanamine], the inhibition constant (Ki) at Rho kinase 1 (ROCK1) and at Rho kinase 2 (ROCK2) was 5 to 50 nM in each case.

Consider `Cc1c[nH]c2nccc(Oc3ccc4c(c3)CCNCC4)c12` [Example 5, 7-((3-methyl-1H-pyrrolo[2,3-b]pyridin-4-yl)oxy)-2,3,4,5-tetrahydro-1H-benzo[d]azepine], for which the Ki on Rho kinase 1 (ROCK1) and on Rho kinase 2 (ROCK2) was below 5 nM in each case.

As to `Cc1c[nH]c2nccc(Oc3ccc(C(C)(C)N)cc3)c12` [Example 25, 2-(4-((3-methyl-1H-pyrrolo[2,3-b]pyridin-4-yl)oxy)phenyl)propan-2-amine], the inhibition constant (Ki) at Rho kinase 1 (ROCK1) was 5 to 50 nM; at Rho kinase 2 (ROCK2), below 5 nM. On the same counts, the results for `Cc1c[nH]c2nccc(Oc3ccc(C(C)N)cc3F)c12` (stereo not drawn) [Example 23, 1-(3-fluoro-4-((3-methyl-1H-pyrrolo[2,3-b]pyridin-4-yl)oxy)phenyl)ethanamine] are below 5 nM and below 5 nM. For `Cc1c[nH]c2nccc(Oc3ccc4c(c3)CNCCC4)c12` [Example 16, 8-((3-methyl-1H-pyrrolo[2,3-b]pyridin-4-yl)oxy)-2,3,4,5-tetrahydro-1H-benzo[c]azepine], the Ki on Rho kinase 1 (ROCK1) was 5 to 50 nM; on Rho kinase 2 (ROCK2) it was below 5 nM. As to `Cc1c[nH]c2nccc(Oc3ccc(C4CCNC4)cc3)c12` (stereo not drawn) [Example 20, 3-methyl-4-(4-(pyrrolidin-3-yl)phenoxy)-1H-pyrrolo[2,3-b]pyridine], the Ki on Rho kinase 1 (ROCK1) and on Rho kinase 2 (ROCK2) was below 5 nM in each case. For `Cc1c[nH]c2nccc(Oc3ccc(CCN4CCCC4)cc3)c12` [Example 22, 3-methyl-4-(4-(2-(pyrrolidin-1-yl)ethyl)phenoxy)-1H-pyrrolo[2,3-b]pyridine], the Ki on Rho kinase 1 (ROCK1) and on Rho kinase 2 (ROCK2) was 5 to 50 nM each time.

As to `Cc1c[nH]c2nccc(Oc3ccc(CNC4CCOCC4)cc3)c12` [Example 28, N-(4-((3-methyl-1H-pyrrolo[2,3-b]pyridin-4-yl)oxy)benzyl)tetrahydro-2H-pyran-4-amine], the inhibitory constant (Ki) on Rho kinase 1 (ROCK1) and on Rho kinase 2 (ROCK2) was 5 to 50 nM throughout.
